Patent US20060173632A1, “Method for predicting effectiveness of chemotherapy” (SYSMEX CORPORATION, priority 2005, published 2006)

Legend:
Assay type in all cases: in vivo
Parameters in all cases: key: Type I mouse is a mouse confirmed to highly sensitive to the anticancer agent. By administering paclitaxel into this type of mouse, the tumor almost disappeared; Type II mouse is a mouse whose sensitivity to the anticancer agent was confirmed to be moderate. By administering paclitaxel into this type of mouse, the increase in tumor size is suppressed; Type III mouse is a mouse confirmed to be poor in sensitivity to the anticancer agent. Even if paclitaxel is administered into this type of mouse, the tumor size continues increasing
[1] = test system: human-derived breast cancer cultured cells (cell B); assay: Paclitaxel effect on tumor size in mice grafted with breast cancer cells B; conditions: Cell B graft; paclitaxel 20 mg/kg/day once a day for 5 day; change in tumor size to day 11; one line per mouse
Description: (§1) Five kinds of human-derived breast cancer cultured cells (cells A to E) were transplanted subcutaneously into the back of mice, and the mice were maintained for 21 to 28 days to graft the breast tumor cells thereon. 50 mice (Nos. 1 to 50 (Table 2)) on which the breast tumor cells had been grafted were thus created. From the back of each of these mice, a 2.5 mm×2.5 mm tissue section (about 50 mg) was cut off, and a lysis buffer (containing 0.1 w/v % Nonidet P-40 (NP-40) (manufactured by Calbiochem), 50 mM Tris-HCl (pH 7.4), 5 mM EDTA, 50 mM sodium fluoride, 1 mM sodium orthovanadate and 100 μl/ml protease cocktail (Sigma)) was added to this tissue section. The tissue section in the lysis buffer was homogenized with an electric homogenizer.
(§2) 20 mg/kg (mouse weight)/day of paclitaxel was administered once a day into each of mice Nos. 1 to 50 for 5 day. The tumor size from the initiation of administration to day 11 was measured. Depending on change in tumor size, mice Nos. 1 to 50 were classified into types I, II and III. Type I mouse is a mouse confirmed to highly sensitive to the anticancer agent. By administering paclitaxel into this type of mouse, the tumor almost disappeared. Type II mouse is a mouse whose sensitivity to the anticancer agent was confirmed to be moderate. By administering paclitaxel into this type of mouse, the increase in tumor size is suppressed. […]

[2] = test system: human-derived breast cancer cultured cells (cell D); assay: Paclitaxel effect on tumor size in mice grafted with breast cancer cells D; conditions: Cell D graft; paclitaxel 20 mg/kg/day once a day for 5 day; change in tumor size to day 11; one line per mouse
Description: as §1, §2

[3] = test system: human-derived breast cancer cultured cells (cell C); assay: Paclitaxel effect on tumor size in mice grafted with breast cancer cells C; conditions: Cell C graft; paclitaxel 20 mg/kg/day once a day for 5 day; change in tumor size to day 11; one line per mouse
Description: as §1, §2

[4] = test system: human-derived breast cancer cultured cells (cell E); assay: Paclitaxel effect on tumor size in mice grafted with breast cancer cells E; conditions: Cell E graft; paclitaxel 20 mg/kg/day once a day for 5 day; change in tumor size to day 11; one line per mouse
Description: as §1, §2

[5] = test system: human-derived breast cancer cultured cells (cell A); assay: Paclitaxel effect on tumor size in mice grafted with breast cancer cells A; conditions: Cell A graft; paclitaxel 20 mg/kg/day once a day for 5 day; change in tumor size to day 11; one line per mouse
Description: as §1, §2

SMILES: CC(=O)O[C@H]1C(=O)[C@@]2(C)[C@H]([C@H](OC(=O)c3ccccc3)[C@]3(O)C[C@H](OC(=O)[C@H](O)[C@@H](NC(=O)c4ccccc4)c4ccccc4)C(C)=C1C3(C)C)[C@]1(OC(C)=O)CO[C@@H]1C[C@@H]2O [paclitaxel]
- result of (4) [1]: Type II
- result of (4) [2]: Type III
- result of (4) [3]: Type II
- result of (4) [4]: Type III
- result of (4) [5]: Type I
